Assay results published in PubChem BioAssay (NCI).
“And” between values parts separate entries of the source, which are not always exact repeats. Equal entries are not always repeated.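 Tested at 5 concentrations; 48 h exposure; 96-well plates; endpoints linearly interpolated, else capped at highest concentration. GI50 marks 50% less growth. TGI marks complete inhibition of growth.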

How the values were obtained:
Assay in all cases: DTP human tumour cell line panel, 48 h
OVCAR-4 ovarian = test system: OVCAR-4 ovarian
SK-MEL-5 melanoma = test system: SK-MEL-5 melanoma
RXF 393 renal = test system: RXF 393 renal
SK-MEL-2 melanoma = test system: SK-MEL-2 melanoma
NCI-H460 lung = test system: NCI-H460 lung
RPMI-8226 leukemia = test system: RPMI-8226 leukemia
SF-268 CNS = test system: SF-268 CNS
A549 NSCLC = test system: A549 NSCLC
EKVX NSCLC = test system: EKVX NSCLC
M19-MEL melanoma = test system: M19-MEL melanoma

Structure (SMILES) | TGI (OVCAR-4 ovarian) [µM] | TGI (SK-MEL-5 melanoma) [µM] | TGI (RXF 393 renal) [µM] | TGI (SK-MEL-2 melanoma) [µM] | TGI (NCI-H460 lung) | TGI (RPMI-8226 leukemia) [µM] | TGI (SF-268 CNS) [µM] | TGI (A549 NSCLC) [µM] | TGI (EKVX NSCLC) [µM] | TGI (M19-MEL melanoma) [µM] | GI50 (OVCAR-4 ovarian) [µM] | GI50 (SK-MEL-5 melanoma) [µM] | GI50 (RXF 393 renal) [µM] | GI50 (SK-MEL-2 melanoma) [µM] | GI50 (NCI-H460 lung) [µM] | GI50 (RPMI-8226 leukemia) [µM] | GI50 (SF-268 CNS) [µM] | GI50 (A549 NSCLC) [µM] | GI50 (EKVX NSCLC) [µM]
CCOC(=O)Cn1c(=O)c(C)cn(COCCO)c1=O | > 100 | > 100 | > 100 | > 100 | > 100 µM | > 100 | > 100 | > 100 | > 100 | – | – | – | – | – | – | – | – | – | –
COC(=O)C1c2cc3c(c(O)c2C(O)CC1(C)O)C(=O)c1c(O)cc2c(c1C3=O)OC1OC2(C)C(O)C(N(C)C)C1O (centres undefined) | > 100 | – | > 100 | > 100 | > 100 µM | > 100 | – | – | – | > 100 | – | – | – | – | – | – | – | – | –
CCOC(C)OC1CC(n2cc(C)c(=O)[nH]c2=O)OC1CO (centres undefined) | > 100 | – | > 100 | > 100 | > 100 µM | > 100 | > 100 | > 100 | > 100 | > 100 | – | – | – | – | – | – | – | – | –
CN/N=C(\C(=O)Nc1ccc(C)c(C)c1)C(C(=O)OC)c1nc2ccc([N+](=O)[O-])cc2[nH]c1=O (centres undefined) | > 100 | > 100 | > 100 | > 100 | > 100 µM | > 100 | > 100 | > 100 | > 100 | > 100 | – | – | – | – | – | – | – | – | –
COc1ccc(C2=NC(c3ccc(Cl)cc3)C(c3ccc(Cl)cc3)N2C(=O)N2CCNC(=O)C2)c(OC(C)C)c1 (centres undefined) | 4.47 | 3.39 | 6.84 | 4.15 | 3.82 µM | > 10 | 3.97 | 5.61 | 4.18 | – | 2.16 | 1.76 | 3.6 | 2.08 | 1.95 | 3.58 | 2.11 | 2.22 | 2.08
CCN(CC)CCO[Si](OCCN(CC)CC)(OCCN(CC)CC)OCCN(CC)CC | > 100 | > 100 | > 100 | > 100 | > 100 µM | – | – | > 100 | > 100 | > 100 | – | – | – | – | – | – | – | – | –
O=C(CCC1CCCCN1)Nc1ccc2c(c1)C(=O)c1ccc(NC(=O)CCN3CCCCC3)cc1C2=O (centres undefined) | 5.38 | 3.27 | 2.07 | – | 23.9 µM | – | 25.4 | 33.4 | – | 5.71 | – | – | – | – | – | – | – | – | –
C(=C/c1nc2ccccc2o1)/c1ccc2c(c1)OCO2 | 44.6 | 56.6 | 41.9 | 36.3 | > 100 µM | > 100 | > 100 | > 81.4 | > 100 | > 100 | – | – | – | – | – | – | – | – | –
C=C(C)[C@@H]1CC[C@]2(CO)CC[C@]3(C)[C@H](CC[C@@H]4[C@@]5(C)CC[C@H](NCO)C(C)(C)[C@@H]5CC[C@]43C)[C@@H]12 | 1.59 | 1.59 | 1.57 | 1.83 | 1.79 µM | 2.5 | 1.92 | 1.73 | 1.64 | – | 0.827 | 0.87 | 0.842 | 0.961 | 0.918 | 0.934 | 0.944 | 0.885 | 0.869
CC1OC(=O)C(C(C)C)NC(=O)C(C(C)C)OC(=O)C(C(C)C)NC(=O)C(C)OC(=O)C(C(C)C)NC(=O)C(C(C)C)OC(=O)C(C(C)C)NC(=O)C(C)OC(=O)C(C(C)C)NC(=O)C(C(C)C)OC(=O)C(C(C)C)NC1=O (centres undefined) | – | – | 0.328 | 0.167 | 0.182 µM and 0.185 µM | 0.0158 | 5.09 | 2.98 | – | 6.28 | – | – | – | – | < 0.0001 | – | – | – | < 0.0001
